System: 997726-040-R-J2-PDC tumor spheroids, viability
Experiment: Anticancer human tumor 997726-040-R-J2-PDC patient-derived squamous cell lung carcinoma cell line growth inhibition [PI3K]
Conditions: spheroids with HUVEC and MSC; for IC50: curve of first compound; for viability, T/C: stronger effect = lower value; active = viability on the fitted dose curve at most 10% of control; inactive = the rest
From the text: Combinatorial screen of targeted agents with the PI3K inhibitors inavolisib, alpelisib, duvelisib, and copanlisib in multi-cell type tumor spheroids
A high-throughput screen of multi-cell type tumor spheroids was designed to identify active combinations of targeted small molecules and PI3K pathway inhibitors. Complex spheroids include a stromal component modeled by human endothelial cells (HUVEC) and fibroblasts modeled by human mesenchymal stem cells (MSCs). The concentration ranges selected for each drug and investigational agent were based upon clinically achievable concentrations if the clinical Cmax of the agent was known.
Compounds. The drugs and investigational agents: inavolisib (NSC800729), alpelisib (NSC765974), duvelisib (NSC772469), copanlisib (NSC816437), ipatasertib (NSC767898), afuresertib (NSC778305), talazoparib (NSC767125), sapanisertib (NSC764658), selumetinib (NSC741078), tovorafenib (DAY101, NSC766906), vemurafenib (NSC761431), ravoxertinib (NSC781343), sotorasib (NSC818433), MRTX1133 (NSC 836407), abemaciclib (NSC 768073), palbociclib (NSC758247), venetoclax (NSC 766270), SY5609 (NSC837396), enzalutamide (NSC755605), and darolutamide (NSC825331), were obtained from the National Cancer Institute (NCI) Developmental Therapeutics Program Chemical Repository. The FDA-approved anticancer drug set is available from the NCI Developmental Therapeutics Program. […] The stock solutions were prepared in dimethyl sulfoxide (DMSO, Sigma-Aldrich, St. Louis, MO, cat. D2650) at 800-fold the tested concentration and stored at -70 degrees C prior to their use. All drugs and investigational agents were tested over a range starting from a high concentration at or near the clinical Cmax and decreasing in half-log increments. If the clinical Cmax for an agent had not been determined, the highest concentration tested was 10 microM.
Cell Culture. All cells were maintained in an incubator at 37 degrees C and 5% CO2 with 95% humidity. The PDC lines were cultured according to standard operating procedures established by the NCI PDMR (https://pdmr.cancer.gov/sops/default.htm). All PDCs were thawed and cultured in Matrigel-coated flasks prepared with a working solution of 1X Ham's F-12 nutrient mix, without supplementation (Invitrogen, Waltham, MA, cat. 11765054), 100 U/mL penicillin-streptomycin (Invitrogen, cat. 15140122), and 2.5% Matrigel (Corning Inc., Corning, NY, cat. 354248) for the first three passages. The 354836-022-R-J1-PDC, 475296-252-R-J1-PDC, and 997726-040-R-J2-PDC lines were cultured in 6A media, which includes advanced DMEM/F-12 (Thermo Fisher Scientific, cat. 12634028), 10 mM HEPES (Thermo Fisher Scientific, cat. 15630080), 1X GlutaMAX supplement (Thermo Fisher Scientific, cat. 35050061), 0.1 mg/mL primocin (InvivoGen, San Diego, CA, cat. ant-pm-2), 10% defined fetal bovine serum, heat inactivated (HyClone Laboratories Inc., Logan, UT, cat. SH30070.03HI), 50% L-WRN conditioned media (ATCC, cat. CRL-3276), 1.25 mM N-Acetyl-L-cysteine (Sigma-Aldrich, cat. A9165), 10 mM nicotinamide (Sigma-Aldrich, cat. N0636), 1X B-27 supplement (Thermo Fisher Scientific, cat. 17504044), 1X N-2 supplement (Thermo Fisher Scientific, cat. 17502048), and 10 microM Y-27632 dihydrochloride (Tocris Bioscience, Bristol, United Kingdom, cat. 1254). The 624824-186-R-J2-PDC line was cultured in 6C/Colon 1B media, which includes all 6A media components plus 50 ng/mL human EGF recombinant protein (Thermo Fisher Scientific, cat. PHG0311). […]
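Also: spheroids exposed to compounds for seven days before readout.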

CCCS(=O)(=O)Nc1ccc(F)c(C(=O)c2c[nH]c3ncc(-c4ccc(Cl)cc4)cc23)c1F + CC(Nc1ccc2c(c1)OCCn1cc(N3C(=O)OCC3C(F)F)nc1-2)C(N)=O
3.46 µM: IC50 (second compound 0.1 µM)
6.54 µM: IC50 (second compound 0.00316 µM)
inactive: viability, T/C (second compound 0.00316 µM, first compound 0.0316 µM) 83.8% | viability, T/C (second compound 0.00316 µM, first compound 0.1 µM) 101% | viability, T/C (second compound 0.00316 µM, first compound 0.316 µM) 98.2% | viability, T/C (second compound 0.00316 µM, first compound 1 µM) 108% | viability, T/C (second compound 0.00316 µM, first compound 3.16 µM) 107% | viability, T/C (second compound 0.00316 µM, first compound 10 µM) 20.9% | viability, T/C (second compound 0.01 µM, first compound 0.0316 µM) 76.5% | viability, T/C (second compound 0.01 µM, first compound 0.1 µM) 94.7% | viability, T/C (second compound 0.01 µM, first compound 0.316 µM) 90.7% | viability, T/C (second compound 0.01 µM, first compound 1 µM) 90.3% | viability, T/C (second compound 0.01 µM, first compound 3.16 µM) 97.1% | viability, T/C (second compound 0.01 µM, first compound 10 µM) 21.8% | viability, T/C (second compound 0.0316 µM, first compound 0.0316 µM) 65.1% | viability, T/C (second compound 0.0316 µM, first compound 0.1 µM) 64.1% | viability, T/C (second compound 0.0316 µM, first compound 0.316 µM) 72.4% | viability, T/C (second compound 0.0316 µM, first compound 1 µM) 72% | viability, T/C (second compound 0.0316 µM, first compound 3.16 µM) 70.3% | viability, T/C (second compound 0.0316 µM, first compound 10 µM) 21.8% | viability, T/C (second compound 0.1 µM, first compound 0.0316 µM) 54.6% | viability, T/C (second compound 0.1 µM, first compound 0.1 µM) 53.1% | viability, T/C (second compound 0.1 µM, first compound 0.316 µM) 49.4% | viability, T/C (second compound 0.1 µM, first compound 1 µM) 51.9% | viability, T/C (second compound 0.1 µM, first compound 3.16 µM) 52.9% | viability, T/C (second compound 0.1 µM, first compound 10 µM) 22.6% | viability, T/C (second compound 0.316 µM, first compound 0.0316 µM) 35.6% | viability, T/C (second compound 0.316 µM, first compound 0.1 µM) 36.8% | viability, T/C (second compound 0.316 µM, first compound 0.316 µM) 40.1% | viability, T/C (second compound 0.316 µM, first compound 1 µM) 43.6% | viability, T/C (second compound 0.316 µM, first compound 3.16 µM) 39.8% | viability, T/C (second compound 0.316 µM, first compound 10 µM) 17.3% | viability, T/C (second compound 1 µM, first compound 0.0316 µM) 35.6% | viability, T/C (second compound 1 µM, first compound 0.1 µM) 28.7% | viability, T/C (second compound 1 µM, first compound 0.316 µM) 29.8% | viability, T/C (second compound 1 µM, first compound 1 µM) 32.5% | viability, T/C (second compound 1 µM, first compound 3.16 µM) 30.9% | viability, T/C (second compound 1 µM, first compound 10 µM) 16.1%
< 0.0316 µM: IC50 (second compound 0.316 µM) | IC50 (second compound 1 µM)
6.21 µM: IC50 (second compound 0.01 µM)
4.99 µM: IC50 (second compound 0.0316 µM)

Reference: PubChem BioAssay AID1963964 (Molecular Pharmacology Branch, DTP, NCI, 2024)
